The values that follow are results of earlier work, collected in publication PMC8621674, “Formulation and In Vivo Evaluation of a Solid Self-Emulsifying Drug Delivery System Using Oily Liquid Tocotrienols as Model Active Substance” (Pharmaceutics, 2021).

For the data set the following is noted: no reference given.

Take “caprylocaproyl macrogol-8 glycerides [Labrasol®]”: the HLB value was 12.
Turning to poloxamer 188, the HLB value is recorded as 29.
